Tests used:
5-HT7(h) = target: T1, 5-HT7(h) (Homo sapiens, UniProt P34969); experiment: Radioligand binding, 5-HT7 (Eurofins CEREP); settings: 1.0 × 10^−05 M; agonist radioligand; read-out: percent inhibition of the binding of a radioactively labeled ligand
T1 construct: Eurofins CEREP
Source text: (§1) Table A discloses mazindol and Met tested at […] and the compound binding calculated as a percent inhibition of the binding of a radioactively labeled ligand specific for each target (Eurofins CEREP, France).
(§2) An inhibition or stimulation of more than 50% is considered a significant effect of the test compounds. Fifty percent is a common cut-off for further investigation (i.e. determination of IC50 or EC50 values from concentration-response curves). Tables B and C display the binding profiles for Mazindol and Met.
(§3) The results are expressed as a percent of control specific binding obtained in the presence of the test compounds:
(§4) [formula] and as a percent inhibition of control specific binding obtained in the presence of the test compounds: […]

H1(h) = target: T2, H1(h) (Homo sapiens, UniProt P35367); experiment: Radioligand binding, H1 (Eurofins CEREP); settings: 1.0 × 10^−05 M; antagonist radioligand; read-out: percent inhibition of the binding of a radioactively labeled ligand
T2 construct: Eurofins CEREP
T2 sequence (P35367 whole entry): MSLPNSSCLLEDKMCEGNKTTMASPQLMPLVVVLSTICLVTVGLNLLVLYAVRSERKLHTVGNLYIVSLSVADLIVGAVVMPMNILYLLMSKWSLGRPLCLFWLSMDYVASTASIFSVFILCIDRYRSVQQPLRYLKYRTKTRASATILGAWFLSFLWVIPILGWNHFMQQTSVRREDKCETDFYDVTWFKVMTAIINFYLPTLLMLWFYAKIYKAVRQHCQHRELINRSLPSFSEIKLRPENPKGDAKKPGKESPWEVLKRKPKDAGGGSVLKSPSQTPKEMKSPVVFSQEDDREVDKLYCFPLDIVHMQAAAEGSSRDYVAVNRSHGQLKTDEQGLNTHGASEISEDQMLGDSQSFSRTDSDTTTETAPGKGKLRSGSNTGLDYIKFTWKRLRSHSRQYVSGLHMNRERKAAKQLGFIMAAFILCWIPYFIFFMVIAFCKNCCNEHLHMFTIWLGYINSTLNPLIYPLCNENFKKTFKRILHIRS
Source text: as §1, §2, §3, §4

M1(h) = target: T3, M1(h) (Homo sapiens, UniProt P11229); experiment: Radioligand binding, M1 (Eurofins CEREP); settings: 1.0 × 10^−05 M; antagonist radioligand; read-out: percent inhibition of the binding of a radioactively labeled ligand
T3 construct: Eurofins CEREP
T3 sequence (P11229 1-460): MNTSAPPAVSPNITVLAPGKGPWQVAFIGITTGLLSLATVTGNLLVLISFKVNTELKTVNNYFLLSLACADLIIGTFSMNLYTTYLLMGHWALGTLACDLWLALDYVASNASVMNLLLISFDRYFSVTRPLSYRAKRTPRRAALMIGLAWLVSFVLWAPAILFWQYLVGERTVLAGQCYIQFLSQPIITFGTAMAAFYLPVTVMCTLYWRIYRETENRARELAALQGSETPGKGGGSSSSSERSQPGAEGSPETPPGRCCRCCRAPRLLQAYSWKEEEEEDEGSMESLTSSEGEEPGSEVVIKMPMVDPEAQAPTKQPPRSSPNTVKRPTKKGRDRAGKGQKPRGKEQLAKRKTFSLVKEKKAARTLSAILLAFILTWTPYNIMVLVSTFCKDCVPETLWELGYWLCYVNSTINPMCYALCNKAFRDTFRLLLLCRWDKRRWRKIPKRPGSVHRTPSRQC
Source text: as §1, §2, §3, §4

k (KOP) = target: T4, k (KOP) (Rattus norvegicus, UniProt P34975); experiment: Radioligand binding, κ opioid receptor (Eurofins CEREP)
T4 construct: Eurofins CEREP
T4 sequence (P34975 whole entry): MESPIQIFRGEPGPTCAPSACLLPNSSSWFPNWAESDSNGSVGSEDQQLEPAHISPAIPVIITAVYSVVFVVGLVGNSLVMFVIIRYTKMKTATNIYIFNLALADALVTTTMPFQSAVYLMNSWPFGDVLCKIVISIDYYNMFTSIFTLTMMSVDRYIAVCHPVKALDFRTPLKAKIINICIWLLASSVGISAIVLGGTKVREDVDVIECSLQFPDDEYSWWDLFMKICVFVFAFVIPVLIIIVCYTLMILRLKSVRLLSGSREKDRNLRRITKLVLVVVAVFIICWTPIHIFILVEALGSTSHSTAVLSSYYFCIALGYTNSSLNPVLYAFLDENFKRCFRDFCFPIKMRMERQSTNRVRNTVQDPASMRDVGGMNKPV
Source text: as §1, §2, §3, §4

C57BL/6J mice = experiment: Conditioned place preference induced by the drug itself; format: in vivo
Source text: Conditioned place preference (CPP) is a widely used procedure for studying the potential addictive effect of drugs. CPP is based upon the tendency of rodents to approach a stimulus that has previously been paired with an incentive state induced by a drug. A drug that induces a CPP may be suspected to present reinforcing effects that could lead to addiction. Numerous addictive drugs, such as opiate agonists or stimulants induce a CPP and a behavioral sensitization.
The effect of mazindol on place preference was examined in C57BL/6J mice using a method similar to the one used by Schlussman et al. (9).
The second experiment consisted in determining the optimal dose of heroin which induces the most significant CPP. For this purpose, the CPP induced by heroin at 1.25, 2.5 and 5 mg/kg was examined.
(§5) Following the habituation session (on day 1), animals (N=72) were pseudo-randomly assigned to two groups, a Control group (N=12) and a Heroin group (N=60), in a way that there was no significant difference between the two groups for the total distance travelled in the apparatus and for the percentage of time spent and the percentage distance travelled in the grey compartment and in the striped compartment.
Animals received the following treatments immediately before drug sessions: • Control group: vehicle • Heroin group: heroin (1.25 mg/kg)
as §5, with “three” for “two”, “(N=12),” for “(N=12) and”, “(N=48) and a Mazindol group (N=12),” for “(N=60),”
Animals received the following treatments before drug sessions: • Control group: vehicle, i.p. immediately before session. • Heroin group: heroin (1.25 mg/kg), i.p. immediately before session. • MAZ 2 group: mazindol (2 mg/kg), i.p. 60 min before session.
Animals received the following treatments before preference session: • Control group: vehicle of mazindol, i.p. 60 min before testing. • Hero group: vehicle of mazindol, i.p. 60 min before testing. • Hero-Mz 1 group: mazindol (1 mg/kg), i.p. 60 min before testing. • Hero-Mz 2 group: mazindol (2 mg/kg), i.p. 60 min before testing. • Hero-A 1 group: D-amphetamine (1 mg/kg), i.p. 30 min before testing. • MAZ 2 group: vehicle of mazindol, i.p. 60 min before testing.

[1] = cited from earlier work
[2] = MAZ 2: mazindol 2 mg/kg i.p. 60 min before drug sessions, vehicle before preference session, day 12, mean

T1 sequence (P34969 whole entry): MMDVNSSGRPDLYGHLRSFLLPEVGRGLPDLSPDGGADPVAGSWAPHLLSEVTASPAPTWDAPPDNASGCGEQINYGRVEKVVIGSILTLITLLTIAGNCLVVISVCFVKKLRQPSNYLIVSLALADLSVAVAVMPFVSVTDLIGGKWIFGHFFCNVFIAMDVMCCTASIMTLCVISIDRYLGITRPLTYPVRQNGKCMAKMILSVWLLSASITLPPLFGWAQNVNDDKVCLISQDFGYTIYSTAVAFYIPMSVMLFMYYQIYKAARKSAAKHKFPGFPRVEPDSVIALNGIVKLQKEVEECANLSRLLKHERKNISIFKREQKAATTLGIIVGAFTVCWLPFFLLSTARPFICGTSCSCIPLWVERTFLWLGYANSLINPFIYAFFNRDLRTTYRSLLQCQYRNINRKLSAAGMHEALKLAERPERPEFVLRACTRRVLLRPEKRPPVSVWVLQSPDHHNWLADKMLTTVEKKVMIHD

With `OC1(c2ccc(Cl)cc2)c2ccccc2C2=NCCN21` (stereo not drawn) [Mazindol, 5-(4-chlorophenyl)-2,5-dihydro-3 H-imadazo[2,1-a]isoindol-5-ol] the inhibition at 10 µM (5-HT7(h)) was 52.9%, the inhibition at 10 µM (H1(h)) was 75.3% and the inhibition at 10 µM (M1(h)) was 52.1%. For the same compound, the “affinity for κ-opioid receptors” value (k (KOP)) was “modest affinity”, the “Distance travelled in the drug-paired compartment” value (C57BL/6J mice; [2]) was 9013.0 cm and the “Distance travelled in the two compartments (Drug + Vehicle)” value (C57BL/6J mice; [2]) was 14858.2 cm. The “Distance travelled in the vehicle-paired compartment” value (C57BL/6J mice; [2]) was 5845.2 cm, the “Distance travelled, drug-paired minus vehicle-paired compartment” value (C57BL/6J mice; [2]) was 3167.8 cm and the “Time spent in the drug-paired compartment” value (C57BL/6J mice; [2]) was 1077.3 s. For the same compound, the “Time spent in the vehicle-paired compartment” value (C57BL/6J mice; [2]) was 722.7 s, the “Time spent, drug-paired minus vehicle-paired compartment” value (C57BL/6J mice; [2]) was 354.6 s and the “place preference induced by the drug” value (C57BL/6J mice; mazindol 2 mg/kg i.p. before drug sessions) was “induced a place preference”. For the same compound, the linearity of pharmacokinetics ([1]; between 1 mg/day and 4 mg/day, immediate release formulations) was “linear (independent of the dose)”, the half-life time ([1]; immediate release formulation, healthy volunteers (Kim 2009)) was 9.1 ± 1.7 h and the “time to maximum concentrations (Tmax)” value ([1]; single or repeated oral administration, U.S. Pat. No. 8,293,779) was 2 to 4 h.
